# In patent publication US11274332B2, “Methods of administering 3,4-diaminopyridine” (SERB SA, priority 2011, dated 2022):
# Test: Food-effect crossover study, adverse events after single 20 mg amifampridine phosphate in healthy subjects (Examples 10, 11)
# Assay type: in vivo
# Procedure: This was a randomized, open-label, 2-treatment, 2-period crossover study with 44 completed subjects to assess the safety, tolerability, and the effect of food on the relative bioavailability of a single dose of amifampridine phosphate.
# Safety was evaluated for all subjects who take at least one dose of 3,4-DAP. Safety was evaluated by recording the incidence of adverse events (AEs), physical examination, vital signs, concomitant medications, clinical laboratory assessments, and 12-lead electrocardiogram (ECG).
# Analysis for the following safety parameters was carried out on the Safety Population: AEs which included all AEs, AEs by severity, drug-related AEs, deaths, SAEs, AEs leading to study discontinuation, and most frequent AEs, standard clinical laboratory tests, vital signs, ECG measurements, routine physical examinations, and prior and concomitant medications. The cut-off for frequency of AEs reported was determined based on the data. No formal statistical testing was performed for the safety analyses; only descriptive statistics were provided. Appropriate descriptive statistics for the safety data were determined using SAS Version 9.2.
# AEs were coded according to the Medical Dictionary for Regulatory Activities (MedDRA; Version 13.0). […] The occurrence of AEs was assessed continuously from the time the subject signed the VID and consent. The reporting period for non-serious AEs was from the first dose to the final study visit. The investigator determined the severity of each event and the relationship of an AE to the IP and recorded it on the source documents and AE CRF. The nature, time of onset, duration, severity, and relationship to study drug was documented, including documentation of investigator assessment and review. All events were assessed to determine if the AE was serious.
# The Investigator determined the severity of each event and the event was recorded on the source documents and AE CRF. A coding of “mild” meant there was no limitation of usual activities, “moderate” meant there was some limitation of usual activities, “severe” meant there was an inability to carry out usual activities.
# The reporting period for AEs that met the criteria of an SAE began from the time of signing the VID and consent form through follow-up or early termination. […] Clinical Laboratory Assessments
structure (smiles),measurement,setting,value
"Nc1ccncc1N [3,4-DAP, 3,4-diaminopyridine]",paraesthesias among the 93 drug-related AEs: % of events,Overall,54%
same,paraesthesias among the 93 drug-related AEs: events,Overall,50
same,"Abdominal Pain, drug-related AE: events",Overall N=47,3
same,"Dizziness, drug-related AE: events",Overall N=47,7
same,"Dysgeusia, drug-related AE: events",Overall N=47,3
same,"Fatigue, drug-related AE: events",Overall N=47,4
same,"Gastrointestinal Disorders Total, drug-related AE: % of subjects",Overall N=47,19%
same,"Gastrointestinal Disorders Total, drug-related AE: events",Overall N=47,12
same,"Gastrointestinal Disorders Total, drug-related AE: subjects",Overall N=47,9
same,"Headache, drug-related AE: events",Overall N=47,5
same,"Hypoaesthesia Oral, drug-related AE: events",Overall N=47,6
same,"Nausea, drug-related AE: events",Overall N=47,4
same,"Nervous System Disorders Total, drug-related AE: % of subjects",Overall N=47,57%
same,"Nervous System Disorders Total, drug-related AE: events",Overall N=47,74
same,"Nervous System Disorders Total, drug-related AE: subjects",Overall N=47,27
same,"Paraesthesia Oral, drug-related AE: events",Overall N=47,30
same,"Paraesthesia, drug-related AE: events",Overall N=47,20
